# Measured values reported in paper PMC8684500, “Substrate specificity of Chondroitinase ABC I based on analyses of biochemical reactions and crystal structures in complex with disaccharides” (Glycobiology, 2021).
# Legend:
# Experiment in all cases: X-ray crystal structure, soaking, […] Å
# Format in all cases: binding
# [1] = target: T1, Chondroitinase ABC I (cABC-I) (Proteus vulgaris, UniProt P59807); conditions: soaked at 100 mM; pH 7.5; three molecules in active site cleft
# T1 construct: native purification from P. vulgaris cells (CSC as inducer); mature monomer, 997 residues; domains 25-234, 235-617, 618-1021
# T1 sequence (P59807 25-1021): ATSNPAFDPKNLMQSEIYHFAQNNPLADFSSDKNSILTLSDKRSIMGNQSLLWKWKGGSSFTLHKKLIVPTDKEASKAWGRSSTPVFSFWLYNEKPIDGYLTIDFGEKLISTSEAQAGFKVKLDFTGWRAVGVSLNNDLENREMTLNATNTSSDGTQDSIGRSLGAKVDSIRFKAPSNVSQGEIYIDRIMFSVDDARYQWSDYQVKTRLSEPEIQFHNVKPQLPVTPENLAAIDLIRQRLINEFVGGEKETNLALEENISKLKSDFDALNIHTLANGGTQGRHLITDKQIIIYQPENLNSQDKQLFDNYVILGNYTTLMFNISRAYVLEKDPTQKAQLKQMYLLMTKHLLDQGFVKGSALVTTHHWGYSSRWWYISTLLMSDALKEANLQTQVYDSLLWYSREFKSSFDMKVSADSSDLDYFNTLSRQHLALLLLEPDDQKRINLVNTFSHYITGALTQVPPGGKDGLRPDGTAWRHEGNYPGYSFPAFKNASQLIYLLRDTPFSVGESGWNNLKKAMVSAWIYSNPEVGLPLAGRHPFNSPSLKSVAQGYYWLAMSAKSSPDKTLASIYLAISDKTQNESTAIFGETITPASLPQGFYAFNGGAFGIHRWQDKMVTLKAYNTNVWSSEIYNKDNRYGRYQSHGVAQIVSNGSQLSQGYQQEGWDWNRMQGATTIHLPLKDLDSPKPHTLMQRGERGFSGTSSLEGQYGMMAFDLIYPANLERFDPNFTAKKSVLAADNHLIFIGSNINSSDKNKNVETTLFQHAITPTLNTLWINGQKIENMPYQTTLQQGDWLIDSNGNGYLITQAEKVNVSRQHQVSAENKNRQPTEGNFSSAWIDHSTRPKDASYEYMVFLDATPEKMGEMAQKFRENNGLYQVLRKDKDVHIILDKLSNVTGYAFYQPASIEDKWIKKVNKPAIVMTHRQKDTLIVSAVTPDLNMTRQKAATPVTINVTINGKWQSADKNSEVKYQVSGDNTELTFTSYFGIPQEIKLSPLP
# [2] = target: T1, Chondroitinase ABC I (cABC-I); conditions: soaked at 100 mM; pH 7.5; two molecules in active site cleft
# [3] = target: T1, Chondroitinase ABC I (cABC-I); conditions: soaked at 100 mM; pH 7.5; two molecules in active site cleft; remark: listed apart in the source
smiles,measurement,setting,value
CC(=O)N[C@H]1C(O)O[C@H](CO)[C@H](OS(=O)(=O)O)[C@@H]1O[C@@H]1OC(C(=O)O)=C[C@H](O)[C@H]1O (stereo partly drawn) [ΔDi-4S],"X-ray crystal structure, soaking, 1.80 Å",[1],"7EIQ, cABC-I in complex with ΔDi-4S"
CC(=O)N[C@H]1C(O)O[C@H](COS(=O)(=O)O)[C@H](O)[C@@H]1O[C@@H]1OC(C(=O)O)=C[C@H](O)[C@H]1O (stereo partly drawn) [ΔDi-6S],"X-ray crystal structure, soaking, 1.92 Å",[2],"7EIR, cABC-I in complex with ΔDi-6S"
CC(=O)N[C@H]1C(O)O[C@H](CO)[C@H](O)[C@@H]1O[C@@H]1OC(C(=O)O)=C[C@H](O)[C@H]1O (stereo partly drawn) [ΔDi-0S],"X-ray crystal structure, soaking, 2.50 Å",[3],"7EIS, cABC-I in complex with ΔDi-0S"
